Assay [1] deals with bacterial strains that express the class D cephalosporinase OXA-15. Description: Synergy MIC / standard BLI potentiation MIC assay, strains expressing OXA-15. The note with it: in the presence of a β-lactam; comparator Avibactam (comparator compound CCC). The class given is cell-based, E. coli. The method in brief: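 Broth microdilution in CAMHB per CLSI, ~10^5 CFU/mL, 18-20 h at 37° C; MIC is lowest concentration with no visible turbidity. Potentiation: β-lactam 128-0.13 μg/mL with BLI fixed at 4 μg/mL. Synergy: BLI serially diluted with β-lactam fixed. Engineered E. coli kept on 25 μg/mL tetracycline.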

In assay [2] the test system is bacterial strains that express KPC β-lactamases. Description: Synergy MIC / standard BLI potentiation MIC assay, strains expressing KPC β-lactamases. The class given is cell-based. The note with it: more active for at least one KPC strain and/or better spectrum of activity than Avibactam; in the presence of a β-lactam. On the procedure: The experimental protocol was performed according to Clinical and Laboratory Standards Institute (CLSI) guidelines with modifications as described below (CLSI guidelines can be derived from the CLSI document M07-A9 published in January 2012: “Methods for Dilution Antimicrobial Susceptibility Tests for Bacteria That Grow Aerobically; Approved Standard-Ninth Edition”).
To prepare for MIC testing, frozen glycerol stocks of clinical isolates (Klebsiella pneumoniae, Eschericia coli, Enterobacter spp, Citrobacter spp, or Pseudomonas aeruginosa) were used to streak for isolated colonies on rich, non-selective, tryptic soy agar containing 5% sheep's blood (TSAB). Frozen glycerol stocks of laboratory engineered, isogenic E. coli strains, which contain cloned β-lactamase expressing plasmids were used to streak for isolated colonies on rich, selective LB agar supplemented with 25 μg/mL tetracycline to maintain the plasmid. All strains were incubated at 37° C. for 18-24 hrs.
On the day of testing, primary cultures were started by scraping off 5-10 colonies from the TSAB plates containing clinical strains or the tetracycline supplemented LB plates containing engineered strains. The clinical strain material was suspended in ˜5 mL of cation adjusted Mueller Hinton Broth (CAMHB) in 14 mL culture tubes. The engineered strain material was suspended in CAMHB (supplemented with 25 μg/mL tetracycline) in 14 mL culture tubes. All strains were incubated at 37° C. with aeration (200 rpm) for ˜2 hrs until the optical density at 600 nm (OD600) was ≧0.1.
The two compound components of the assay were each diluted in CAMHB and added to the 96-well broth microdilution assay plates. 50 μL of the β-lactam was added to each well of the assay plate in 2-fold dilutions with final concentrations ranging from 128 to 0.13 μg/mL. 25 μL of the BLI compound was added to all wells in the broth microdilution plates at a final concentration of 4 μg/mL. Inoculum cultures were prepared by standardizing the primary cultures to OD600=0.1 and then adding 20 μL of the adjusted primary culture per 1 mL CAMHB for clinical strains or CAMHB (supplemented with tetracycline at 100 μg/mL) for engineered strains, so that the final inoculum density was ˜10^5 colony forming units per milliliter. Diluted inoculum cultures were used to inoculate 25 μL per well in 96-well broth microdilution assay plates. The final volume of each well was 100 μL and contained a β-lactam at different concentrations, a BLI compound at 4 μg/mL concentration, the bacterial culture at an OD600 of approximately 0.001 and when necessary tetracycline at 25 μg/mL.
Plates were incubated for 18-20 hours at 37° C. with aeration (200 rpm). Following incubation, growth was confirmed visually placing plates over a viewing apparatus (stand with a mirror underneath) and then OD600 was measured using a SpectraMax 340PC384 plate reader (Molecular Devices, Sunnyvale, Calif.). Growth was defined as turbidity that could be detected with the naked eye or achieving minimum OD600 of 0.1. MIC values were defined as the lowest concentration producing no visible turbidity.
The synergy MIC (sMIC) assay determines the concentration of the BLI required to potentiate the activity of a fixed concentration of a β-lactam antibiotic against β-lactamase producing bacterial strains. The experimental protocol was performed according to Clinical and Laboratory Standards Institute (CLSI) guidelines with modifications as described below (CLSI guidelines can be derived from the CLSI document M07-A9 published in January 2012: “Methods for Dilution Antimicrobial Susceptibility Tests for Bacteria That Grow Aerobically; Approved Standard-Ninth Edition”). […]

Here are results for 15 compounds from patent US20140315876A1, “BETA-LACTAMASE INHIBITORS” (priority 2013, published 2014).

Where a name gives a salt, the structure may show the parent alone.

Consider `NCCCCc1nnc([C@@H]2CC[C@@H]3CN2C(=O)N3OS(=O)(=O)O)o1` [Compound 735, (2S,5R)-2-(5-(4-aminobutyl)-1,3,4-oxadiazol-2-yl)-7-oxo-1,6-diazabicyclo[3.2.1]octan-6-yl hydrogen sulfate], for which the “activity against bacterial strains that express the class D cephalosporinase OXA-15, compared with Avibactam” value in assay [1] is “more active than Avibactam”. Besides, the “activity and/or spectrum of activity against bacterial strains that express KPC β-lactamases, compared with Avibactam” value in assay [2] is reported as “more active than Avibactam”.

With `O=C1N2C[C@@H](CC[C@H]2c2nnc(CCNCCO)o2)N1OS(=O)(=O)O` [Compound 736, (2S,5R)-2-(5-(2-((2-hydroxyethyl)amino)ethyl)-1,3,4-oxadiazol-2-yl)-7-oxo-1,6-diazabicyclo[3.2.1]octan-6-yl hydrogen sulfate], the “activity against bacterial strains that express the class D cephalosporinase OXA-15, compared with Avibactam” value in assay [1] is listed as “more active than Avibactam”. Further, the “activity and/or spectrum of activity against bacterial strains that express KPC β-lactamases, compared with Avibactam” value in assay [2] is given as “more active than Avibactam”.

Turning to `CC(C)(N)Cc1nnc([C@@H]2CC[C@@H]3CN2C(=O)N3OS(=O)(=O)O)o1` [Compound 737, (2S,5R)-2-(5-(2-amino-2-methylpropyl)-1,3,4-oxadiazol-2-yl)-7-oxo-1,6-diazabicyclo[3.2.1]octan-6-yl hydrogen sulfate], the “activity against bacterial strains that express the class D cephalosporinase OXA-15, compared with Avibactam” value in assay [1] is recorded as “more active than Avibactam”. Further, the “activity and/or spectrum of activity against bacterial strains that express KPC β-lactamases, compared with Avibactam” value in assay [2] is recorded as “more active than Avibactam”.

Regarding `N=C(N)Nc1nnc([C@@H]2CC[C@@H]3CN2C(=O)N3OS(=O)(=O)O)o1` [Compound 738, (2S,5R)-2-(5-guanidino-1,3,4-oxadiazol-2-yl)-7-oxo-1,6-diazabicyclo[3.2.1]octan-6-yl hydrogen sulfate], in assay [1], the “activity against bacterial strains that express the class D cephalosporinase OXA-15, compared with Avibactam” value was “more active than Avibactam”. Further, the “activity and/or spectrum of activity against bacterial strains that express KPC β-lactamases, compared with Avibactam” value in assay [2] was “more active than Avibactam”.

With `N=C(N)NC1(Cc2nnc([C@@H]3CC[C@@H]4CN3C(=O)N4OS(=O)(=O)O)o2)CC1` [Compound 739, (2S,5R)-2-(5-((1-guanidinocyclopropyl)methyl)-1,3,4-oxadiazol-2-yl)-7-oxo-1,6-diazabicyclo[3.2.1]octan-6-yl hydrogen sulfate], the “activity against bacterial strains that express the class D cephalosporinase OXA-15, compared with Avibactam” value in assay [1] was “more active than Avibactam”. Further, the “activity and/or spectrum of activity against bacterial strains that express KPC β-lactamases, compared with Avibactam” value in assay [2] is recorded as “more active than Avibactam”.

On to `O=C1N2C[C@@H](CC[C@H]2c2nnc([C@H]3[C@@H]4CNC[C@@H]43)o2)N1OS(=O)(=O)O` [Compound 740, (2S,5R)-2-(5-(3-azabicyclo[3.1.0]hexan-6-yl)-1,3,4-oxadiazol-2-yl)-7-oxo-1,6-diazabicyclo[3.2.1]octan-6-yl hydrogen sulfate], for which, in assay [1], the “activity against bacterial strains that express the class D cephalosporinase OXA-15, compared with Avibactam” value is recorded as “more active than Avibactam”. Besides, the “activity and/or spectrum of activity against bacterial strains that express KPC β-lactamases, compared with Avibactam” value in assay [2] was “more active than Avibactam”.

Turning to `N=C(N)N1CC(Cc2nnc([C@@H]3CC[C@@H]4CN3C(=O)N4OS(=O)(=O)O)o2)C1` [Compound 741, (2S,5R)-2-(5-((1-carbamimidoylazetidin-3-yl)methyl)-1,3,4-oxadiazol-2-yl)-7-oxo-1,6-diazabicyclo[3.2.1]octan-6-yl hydrogen sulfate], the “activity against bacterial strains that express the class D cephalosporinase OXA-15, compared with Avibactam” value in assay [1] is given as “more active than Avibactam”. The “activity and/or spectrum of activity against bacterial strains that express KPC β-lactamases, compared with Avibactam” value in assay [2] is listed as “more active than Avibactam”.

For the compound `O=C1N2C[C@@H](CC[C@H]2c2nnc(CCC3CNC3)o2)N1OS(=O)(=O)O` [Compound 742, (2S,5R)-2-(5-(2-(azetidin-3-yl)ethyl)-1,3,4-oxadiazol-2-yl)-7-oxo-1,6-diazabicyclo[3.2.1]octan-6-yl hydrogen sulfate], the “activity against bacterial strains that express the class D cephalosporinase OXA-15, compared with Avibactam” value in assay [1] is recorded as “more active than Avibactam”. Also, in assay [2], the “activity and/or spectrum of activity against bacterial strains that express KPC β-lactamases, compared with Avibactam” value was “more active than Avibactam”.

On to `O=C1N2C[C@@H](CC[C@H]2c2nnc(CCCC3CNC3)o2)N1OS(=O)(=O)O` [Compound 743, (2S,5R)-2-(5-(3-(azetidin-3-yl)propyl)-1,3,4-oxadiazol-2-yl)-7-oxo-1,6-diazabicyclo[3.2.1]octan-6-yl hydrogen sulfate], for which, in assay [1], the “activity against bacterial strains that express the class D cephalosporinase OXA-15, compared with Avibactam” value is on record as “more active than Avibactam”. For the same compound, the “activity and/or spectrum of activity against bacterial strains that express KPC β-lactamases, compared with Avibactam” value in assay [2] is “more active than Avibactam”.

`O=C1N2C[C@@H](CC[C@H]2c2nnc(COC3CNC3)o2)N1OS(=O)(=O)O` [Compound 744, (2S,5R)-2-(5-((azetidin-3-yloxy)methyl)-1,3,4-oxadiazol-2-yl)-7-oxo-1,6-diazabicyclo[3.2.1]octan-6-yl hydrogen sulfate]: in assay [1], the “activity against bacterial strains that express the class D cephalosporinase OXA-15, compared with Avibactam” value is “more active than Avibactam”. Also, in assay [2], the “activity and/or spectrum of activity against bacterial strains that express KPC β-lactamases, compared with Avibactam” value is “more active than Avibactam”.

For `O=C1N2C[C@@H](CC[C@H]2c2nnc(CCNC3CNC3)o2)N1OS(=O)(=O)O` [Compound 745, (2S,5R)-2-(5-(2-(azetidin-3-ylamino)ethyl)-1,3,4-oxadiazol-2-yl)-7-oxo-1,6-diazabicyclo[3.2.1]octan-6-yl hydrogen sulfate], in assay [1], the “activity against bacterial strains that express the class D cephalosporinase OXA-15, compared with Avibactam” value is “more active than Avibactam”. The “activity and/or spectrum of activity against bacterial strains that express KPC β-lactamases, compared with Avibactam” value in assay [2] is on record as “more active than Avibactam”.

With `N=C(N)N1CC(NCc2nnc([C@@H]3CC[C@@H]4CN3C(=O)N4OS(=O)(=O)O)o2)C1` [Compound 746, (2S,5R)-2-(5-(((1-carbamimidoylazetidin-3-yl)amino)methyl)-1,3,4-oxadiazol-2-yl)-7-oxo-1,6-diazabicyclo[3.2.1]octan-6-yl hydrogen sulfate], the “activity against bacterial strains that express the class D cephalosporinase OXA-15, compared with Avibactam” value in assay [1] is “more active than Avibactam”. Besides, the “activity and/or spectrum of activity against bacterial strains that express KPC β-lactamases, compared with Avibactam” value in assay [2] is on record as “more active than Avibactam”.

Take `N=C(N)N[C@H]1C[C@@H](c2nnc([C@@H]3CC[C@@H]4CN3C(=O)N4OS(=O)(=O)O)o2)C1` [Compound 749, (2S,5R)-2-(5-((1s,3R)-3-guanidinocyclobutyl)-1,3,4-oxadiazol-2-yl)-7-oxo-1,6-diazabicyclo[3.2.1]octan-6-yl hydrogen sulfate]: in assay [1], the “activity against bacterial strains that express the class D cephalosporinase OXA-15, compared with Avibactam” value is “more active than Avibactam”. Further, the “activity and/or spectrum of activity against bacterial strains that express KPC β-lactamases, compared with Avibactam” value in assay [2] is given as “more active than Avibactam”.

Turning to `O=C1N2C[C@@H](CC[C@H]2c2nnc(C3CC4(CNC4)C3)o2)N1OS(=O)(=O)O` [Compound 750, (2S,5R)-2-(5-(2-azaspiro[3,3]heptan-6-yl)-1,3,4-oxadiazol-2-yl)-7-oxo-1,6-diazabicyclo[3.2.1]octan-6-yl hydrogen sulfate], the “activity against bacterial strains that express the class D cephalosporinase OXA-15, compared with Avibactam” value in assay [1] is listed as “more active than Avibactam”. Also, the “activity and/or spectrum of activity against bacterial strains that express KPC β-lactamases, compared with Avibactam” value in assay [2] is listed as “more active than Avibactam”.

Take `N[C@H]1C[C@H](Cc2nnc([C@@H]3CC[C@@H]4CN3C(=O)N4OS(=O)(=O)O)o2)C1` [Compound 751, (2S,5R)-2-(5-(((1r,3S)-3-aminocyclobutyl)methyl)-1,3,4-oxadiazol-2-yl)-7-oxo-1,6-diazabicyclo[3.2.1]octan-6-yl hydrogen sulfate]: in assay [1], the “activity against bacterial strains that express the class D cephalosporinase OXA-15, compared with Avibactam” value was “more active than Avibactam”. Besides, in assay [2], the “activity and/or spectrum of activity against bacterial strains that express KPC β-lactamases, compared with Avibactam” value is given as “more active than Avibactam”.
